Results on twelve molecules are retold here after article PMC6563099, “Novel Thienopyrimidine Derivative, RP-010, Induces β-Catenin Fragmentation and Is Efficacious against Prostate Cancer Cells” (Cancers, 2019).

What all share (type): cell-based
For one test, the system named is DU145. Kind of test: MTT cytotoxicity assay, DU145 prostate cancer cells. The note with it: Homo sapiens, DU-145, MTT assay; means ± SDs of three independent experiments; read-out: IC50 ± SD, Prostate Cancer Cells, DU145. The procedure:
(§1) All the cells were cultured as adherent monolayers in culture flasks, and were used to determine the anti-cancer efficacy of RP-010. DMEM supplemented with 4.5 g of glucose, 10% fetal bovine serum (FBS) and 1% penicillin/streptomycin, was used to augment cell growth. Finally, the cells were incubated and grown in a humidified incubator containing 5% CO2 at 37 °C [50]. […] Cells were obtained from frozen stocks and cell passaging (up to P4) was performed at 80% cell confluency, using PBS and trypsin + 2.2-mM EDTA.
(§2) MTT assays were used to determine the cytotoxicity of the RP compounds, to PC cell lines, as previously described.

The test system of a further test is CRL-1459. Kind of test: MTT cytotoxicity assay, CRL-1459 normal colon epithelial cells. To be noted: Homo sapiens, normal colon epithelial cell line, means ± SDs of three independent experiments, read-out: IC50 ± SD, Non-Prostate Cells, CRL-1459. The procedure:
as §1, §2
In general terms: Tetrazolium assays rely on reduction of a dye to a coloured formazan, in cell work by metabolically active cells.

The subject of a further test is CHO. Kind of test: MTT cytotoxicity assay, CHO cells. The note with it: Cricetulus griseus, Chinese hamster ovarian cell line, means ± SDs of three independent experiments, read-out: IC50 ± SD, Non-Prostate Cells, CHO. On the procedure:
as §1, §2

A further test concerns PC-3. Kind of test: MTT cytotoxicity assay, PC-3 prostate cancer cells. To be noted: Homo sapiens, PC-3, MTT assay; means ± SDs of three independent experiments; read-out: IC50 ± SD, Prostate Cancer Cells, PC-3. The procedure: as §1, §2

For the molecule `O=c1[nH]c(-c2ccccc2)nc2sc3c(c12)CCCC3` [RP1], the IC50 in the test on DU145, with CRL-1459, with CHO and with PC-3 was greater than 100 µM in each case.
Take `O=c1[nH]c(-c2ccc(F)cc2)nc2sc3c(c12)CCCC3` [RP2]: the IC50 in the test with DU145, with CRL-1459, in the test with CHO and in the test with PC-3 was greater than 100 µM throughout.
`O=c1[nH]c(-c2ccc(Cl)cc2)nc2sc3c(c12)CCCC3` [RP3]: the IC50 in the test with DU145, in the test on CRL-1459, in the test with CHO and in the test with PC-3 was greater than 100 µM each time.
As to `O=c1[nH]c(-c2ccc(Cl)cc2Cl)nc2sc3c(c12)CCCC3` [RP4], the IC50 with DU145 was greater than 100 µM; in the test on CRL-1459 it was greater than 100 µM; with CHO, greater than 100 µM; with PC-3 it was 73.4 ± 3.1 µM.
With `O=c1[nH]c(-c2cccc([N+](=O)[O-])c2)nc2sc3c(c12)CCCC3` [RP5], the IC50 with DU145, in the test on CRL-1459, in the test on CHO and with PC-3 was greater than 100 µM throughout.
For the molecule `O=c1[nH]c(-c2ccc([N+](=O)[O-])cc2)nc2sc3c(c12)CCCC3` [RP6], the IC50 with DU145, in the test on CRL-1459, with CHO and in the test on PC-3 was greater than 100 µM in each case.
On to `Cc1ccc(-c2nc3sc4c(c3c(=O)[nH]2)CCCC4)cc1` [RP7], for which the IC50 in the test with DU145, in the test on CRL-1459, in the test with CHO and with PC-3 was greater than 100 µM throughout.
As to `N#Cc1ccc(-c2nc3sc4c(c3c(=O)[nH]2)CCCC4)cc1` [RP8], the half-inhibitory concentration (IC50) was greater than 100 µM in the test on DU145, greater than 100 µM with CRL-1459, greater than 100 µM with CHO and 6.4 ± 0.5 µM in the test on PC-3.
Turning to `COc1cccc(-c2nc3sc4c(c3c(=O)[nH]2)CCCC4)c1` [RP9], the IC50 in the test with DU145 is greater than 100 µM; with CRL-1459, greater than 100 µM; in the test with CHO it was greater than 100 µM; in the test on PC-3, 2.8 ± 1.1 µM.
For the molecule `COc1ccc(-c2nc3sc4c(c3c(=O)[nH]2)CCCC4)cc1OC` [RP11], the IC50 in the test with DU145 is 2.7 ± 0.5 µM; with CRL-1459 it was greater than 100 µM; in the test with CHO, greater than 100 µM; in the test with PC-3, 6.6 ± 0.7 µM.
For the molecule `COc1cc(OC)cc(-c2nc3sc4c(c3c(=O)[nH]2)CCCC4)c1` [RP12], the IC50 in the test on DU145 is greater than 100 µM; in the test with CRL-1459, greater than 100 µM; in the test on CHO, greater than 100 µM; in the test on PC-3, 6.9 ± 1 µM.
With `COc1cccc(-c2nc3sc4c(c3c(=O)[nH]2)CCCC4)c1O` [RP13], the IC50 with DU145, with CRL-1459, in the test on CHO and in the test with PC-3 was greater than 100 µM each time.

As a reminder, the IC50 is the midpoint of a concentration-inhibition curve.
